Converted amounts (≈) assume the structure as drawn.
What was measured:
A. flavus = assay: Microbroth dilution assay; assay type: cell-based; design: key to Activity of the compound against Aspergillus sp. after 48 hrs.: +ve if medium appeared clear with out any growth of fungi; −ve if growth was there
Procedure: (§1) Pathogenic strains of fungi were obtained from the Mycology Department of Vallabhbhai Patel Chest Institute, Delhi. All the strains were grown on Sabouraud dextrose agar at 37° C. The conidia form these cultures were harvested and suspended in Sabouraud maltose broth. The number of conidia was counted using haemocytometer and their number in the suspension was adjusted to as per need of the experiment.
(§2) The antifungal susceptibility of the fungi to various fractions or the purified component was assayed by the microbroth dilution method (Forthergill A. W. and McGough A. W., 1995, Clin. Microbiol. Procedure Handbook. In Vitro susceptibility Testing of Yeast, 5.15.1-5.15.15). The fungal spores were harvested from 96-h cultures and their number adjusted to 1×10^6 per ml. The Sabouraud Dextrose medium was dissolved in glass double distilled water and autoclaved at 10 psi for 15 min. 90-μl medium was added into the wells of cell culture plates. The different concentrations of the extract, fractions or the purified compound were prepared in duplicate wells and then the wells were inoculated with 10 μl of spore suspension. The plates were incubated at 37° C. and examined macroscopically after 48 h for the growth of fungal mycelia. The activity was represented as −ve if growth was there and +ve if medium appeared clear with out any growth of fungi.
(§3) The antifungal susceptibility of the fungi to the purified compound was assayed by the microbroth dilution method. The different concentrations of the purified compound ranging from 21.87 to 350 μg/ml were prepared in duplicate wells by twofold dilution method. The test was done as described above.

A. fumigatus [1] = assay: Microbroth dilution assay; assay type: cell-based; design: key to Activity of the compound against Aspergillus sp. after 48 hrs.: +ve if medium appeared clear with out any growth of fungi; −ve if growth was there
Procedure: as §1, §2, §3

A. niger = assay: Microbroth dilution assay; assay type: cell-based; design: key to Activity of the compound against Aspergillus sp. after 48 hrs.: +ve if medium appeared clear with out any growth of fungi; −ve if growth was there
Procedure: as §1, §2, §3

A. fumigatus [2] = assay: Disc diffusion assay; assay type: cell-based; conditions: concentration developing zone of inhibition of 6.0-mm diameter
Procedure: as §1
The disc diffusion test was performed as per described in the section of details of invention. Amphotericin B 1.25 μg/disc was used in assay as positive control standard drug. Additional discs impregnated with equivalent amount of solvent were also used in the assay as negative controls (FIG. 5).
The potency of the compound was determined with the help of standard curve constructed using amphotericin B as standard drug against A. fumigatus. Standard curve was prepared according to method given in the Indian Pharmacopoeia. The corrected values of diameter of zone of inhibition along with lowest and highest values were determined. These values were plotted on semilog paper to prepare standard curve. The value of diameter of zone of inhibition obtained for compound was put into the standard curve and corresponding dose producing the effect equivalent to amphotericin B was determined to find out the potency of the compound (FIG. 6).

Aspergillus species = assay: Spore germination inhibition assay; assay type: cell-based; conditions: 10 hrs incubation
Procedure: as §1
The modified spore germination inhibition assay was performed as described earlier (Sureder P. and Janaiah C., 1987, Ind. J. Expt. Biol., 25, 233-234). The fungal species were grown on Sabouraud dextrose agar plates at 37° C. for 96 h. […] The conidia were counted and their number in the suspension was adjusted to 1×10^4 per ml. The standard drug Amphotericin B and test samples were initially dissolved in minimal quantity of dimethylsulfoxide (DMSO) and then diluted with Sabouraud dextrose medium. […] The number of germinated and non-germinated spores was counted. The percent spore germination inhibition (PSGI) was calculated using following formula [formula]
Antifungal Activity of Pure Compound by Spore Germination Inhibition Assay The spore germination inhibition assay was performed to evaluate the activity of the compound. […] The number of germinated and non-germinated spores was counted and the percent spore germination inhibition (PSGI) was calculated. […]

A. fumigatus infection = assay: Quantification of colony forming units in organs of infected mice; assay type: in vivo, Balb/C mice
Text: In vivo efficacy of the compound against A. fumigatus infection was studied in the Balb/C mice of 6-8 weak of age of either sex, weighing 15-20 g each. The mice model of aspergillosis described by Dixon et al (1989), was used to study the effects of compound on in vivo infection of A. fumigatus.
The animals were housed in the micro-barrier cages on sterile bedding and fed ad libitum water and food. The mice were divided into 6 groups and each group contained 8-10 animals. The mice were infected experimentally with A. fumigatus. Three days prior to infection with conidia, mice were injected subcutaneously with 3 doses (250.0 mg/kg/day) of cortisone acetate in 400.0 μl of PBS. On the infection day, each mouse received 2×10^7 conidia by nasal instillation of a single droplet of conidial suspension. The animals of this model developed invasive aspergillosis and all the infected animals died within 4-6 days.
The mice were kept under constant watch and those getting moribund, dying or survived up to 10 days were sacrificed. The autopsy was performed on the mice who had died to remove their organs for quantification of colony forming units (CFU). The lungs, livers and kidneys of the mice were removed aseptically, placed in sterile PBS (pH 7.2) and homogenized with teflon pestle mortar. The CFU in the animals were determined by plating 10 fold dilutions of organ homogenates on Sabouraud dextrose agar containing 0.05% triton X-100. The triton X-100 limited the colony size and thus greatly facilitated colony counting (Frosco, 1992). After an incubation for 48 h at 37° C., colonies were counted and results were expressed as CFU per organ.
The fungal burden in the organs of the animals, which died or became moribund during study or those survived up to 10th day, was determined. The lungs, livers and kidneys of the animals were isolated, homogenized and the homogenate was used to culture the pathogen on Sabouraud dextrose agar plates. The colonies of the fungus were counted and expressed as colony forming units (CFU)/organ.

SMILES: CCCCC(=O)OC(C)CC1NCC(C)=C1C (stereo not shown) [PC-1, 2-(3,4-dimethyl-2,5-dihydro-1H-pyrrol-2-yl)-1-methylethyl pentanoate]
- Activity of the compound against Aspergillus sp. after 48 hrs. (A. flavus; 21.87 μg/ml): −
- Activity of the compound against Aspergillus sp. after 48 hrs. (A. flavus; 43.75 μg/ml): −
- MIC (A. flavus; Aspergillus flavus, no visual growth, 48 h): 87.5 µg/mL (≈ 366 µM)
- Activity of the compound against Aspergillus sp. after 48 hrs. (A. fumigatus [1]; 21.87 μg/ml): −
- Activity of the compound against Aspergillus sp. after 48 hrs. (A. fumigatus [1]; 43.75 μg/ml): −
- MIC (A. fumigatus [1]; Aspergillus fumigatus, no visual growth, 48 h): 87.5 µg/mL (≈ 366 µM)
- Activity of the compound against Aspergillus sp. after 48 hrs. (A. niger; 21.87 μg/ml): −
- Activity of the compound against Aspergillus sp. after 48 hrs. (A. niger; 43.75 μg/ml): −
- MIC (A. niger; Aspergillus niger, no visual growth, 48 h): 87.5 µg/mL (≈ 366 µM)
- MIC by disc diffusion assay (A. fumigatus [2]): 5 μg/disc
- MIC by disc diffusion assay (A. fumigatus [2]; listed as antifungal lead molecule): 5.0 μg/disc
- MIC by percent spore germination inhibition (Aspergillus species): 87.5 µg/mL (≈ 366 µM)
- effect on colony counts in lung as compared to controls (A. fumigatus infection; 400 mg/kg body weight, p<0.001): reduced the colony counts significantly
- effect on number of CFUs in kidneys (A. fumigatus infection; 100.0 to 400.0 mg/kg body weight): significant reduction
- effect on the CFUs in the lung tissue (A. fumigatus infection; doses of 25.0 and 50.0 mg/kg body weight): did not have any effect
- effect on CFUs in liver (A. fumigatus infection; liver): very less effect
